Entries after “also recorded” stand apart in the source; their conditions may differ. Read-outs that look alike come from different tables or passages of the source.

We go through 13 compounds from article PMC2832307 (Journal of medicinal chemistry, 2009).

The test system of data set [1] is human cytoplasmic A site sequence. Particulars: cited from earlier work.
The test system of a further data set is mice. Particulars: cited from earlier work.
Another data set deals with premature stop codons. Particulars: cited from earlier work.
Data set [2] concerns human CFTR-G542X nonsense mutation. The settings on record: clinical doses, transgenic CF mouse; cited from earlier work.
Data set [3] in a line: Acute intravenous toxicity. Particulars: male, BALB/C, mouse, in vivo. Also noted: species or system mice.
In data set [4] the test system is nonsense mutation constructs (p2luc, R3381X, R3X, R245X, G542X, W1282X, Q70X, W402X). Nature of the data set: In vitro dual luciferase readthrough assay. In kind it is biochemical. Particulars: for reduction in overall translation: highest concentration, Renilla luciferase activity ratio, all eight constructs.
Data set [5] has as its system PCDH15-R3X nonsense mutation. Nature of the data set: Ex vivo dual luciferase readthrough assay in COS-7 cells. The data set is classed as cell-based, monkey.
Data set [6] has as its system hair cells of mouse organ of Corti explants. Nature of the data set: Ototoxicity: hair cell loss in cochlear explants. The data set is classed as cell-based. The settings on record: 0.2 mM, basal part.

In the case of `NC[C@H]1O[C@@H](O[C@@H]2[C@@H](O)[C@H](N)C[C@H](N)[C@H]2O[C@H]2O[C@H](CO)[C@@H](O)[C@H](O)[C@H]2N)[C@H](O)[C@@H]1O` [compound 1], the “fold weaker affinity than paromomycin” value in data set [1] is “about 100 fold”. On to `NCC[C@H](O)C(=O)N[C@@H]1C[C@H](N)[C@@H](O[C@H]2O[C@H](CN)[C@@H](O)[C@H](O)[C@H]2O)[C@H](O)[C@H]1O[C@H]1O[C@H](CO)[C@@H](O)[C@H](N)[C@H]1O` [amikacin], for which, in the data set with mice (acute intravenous toxicity in mice), the LD50 (in general, the dose at which mortality reaches 50%) is 300 mg/kg. In addition, in the data set on premature stop codons, the “readthrough potency, fold lower than gentamicin” value was “over 10 fold”. For the same compound, the “suppression of CFTR-G542X nonsense mutation” value in data set [2] is “highly effective suppression”. In the case of butirosin, the LD50 in the data set with mice (acute lethal toxicity) is listed as 520 mg/kg. Turning to `NC[C@H]1O[C@H](O[C@H]2[C@H](O[C@@H]3O[C@H](CO)[C@@H](O)[C@H]3O)[C@@H](O)[C@H](N)C[C@@H]2N)[C@H](N)[C@@H](O)[C@@H]1O` [ribostamycin], in the data set with mice (acute lethal toxicity), the LD50 is 260 mg/kg. Take `NC[C@@H]1CC[C@@H](N)[C@@H](O[C@H]2[C@H](O)[C@@H](O[C@H]3O[C@H](CO)[C@@H](O)[C@H](N)[C@H]3O)[C@H](N)C[C@@H]2N)O1` [dibekacin]: the LD50 in the data set with mice (acute lethal toxicity) was 71 mg/kg. On to `NC[C@H]1O[C@H](O[C@H]2[C@H](O)[C@@H](O[C@H]3O[C@H](CO)[C@@H](O)[C@H](N)[C@H]3O)[C@H](N)C[C@@H]2N)[C@H](N)C[C@@H]1O` [tobramycin], for which the suppression activity result in the data set on premature stop codons is reported as “does not have suppression activity”. `NCC[C@H](O)C(=O)N[C@@H]1C[C@H](N)[C@@H](O[C@H]2O[C@H](CN)CC[C@H]2N)[C@H](O)[C@H]1O[C@H]1O[C@H](CO)[C@@H](O)[C@H](N)[C@H]1O` [arbekacin]: in the data set on mice (acute lethal toxicity), the LD50 was 118 mg/kg.

Regarding `CNC(C)C1CCC(N)C(OC2C(N)CC(N)C(OC3OCC(C)(O)C(NC)C3O)C2O)O1` (stereo not shown) [Gentamicin, gentamicin], the LD50 at 4 days in data set [3] was 60 mg/kg. Further, the “reduction in overall translation” value in data set [4] is “approximately 50%”. The same compound registered a maximal suppression level in data set [5] (COS-7 cells) of 1.86%. The “hair cell loss in cochlear explants” value in data set [6] is reported as “hair cell loss was almost complete; also recorded: cell loss is almost complete”. In the case of kanamycin A, in the data set on premature stop codons, the readthrough activity entry was “does not show measurable readthrough activity”. In the case of `NCC[C@H](O)C(=O)N[C@@H]1C[C@H](N)[C@@H](O[C@H]2O[C@H](CO)[C@@H](O)[C@H](O)[C@H]2N)[C@H](O[C@@H]2O[C@H](CN)[C@@H](O)[C@H]2O)[C@H]1O` [compound 2, 5-O-(5-Amino-5-deoxy-β-D-ribofuranosyl)-1-N-[(S)-4-amino-2-hydroxy-butanoyl]paromamine], the “reduction in overall translation” value in data set [4] was “approximately 50%”. Moreover, the “level of readthrough (rank among four aminoglycosides)” value in data set [4] (in vitro, eight constructs) is recorded as “induced the highest level of readthrough”. The “fold more effective (maximal suppression) than compound 1” value in data set [5] (COS-7, vs compound 1) stood at 1.9 fold. In data set [5] (COS-7, vs gentamicin), the “fold more effective (maximal suppression) than gentamicin” value amounted to 2.8 fold. Moreover, the “fold more effective (maximal suppression) than paromomycin” value in data set [5] (COS-7, vs paromomycin) is given as 3.2 fold.

For `NC[C@H]1O[C@H](O[C@H]2[C@H](O)[C@@H](O)[C@H](N)C[C@@H]2N)[C@H](N)[C@@H](O)[C@@H]1O` [neamine], the 50% lethal dose (LD50) in the data set with mice (acute lethal toxicity) was 125 mg/kg. For the compound `NC[C@@H]1O[C@H](O[C@H]2[C@@H](O)[C@H](O[C@@H]3[C@@H](O)[C@H](N)C[C@H](N)[C@H]3O[C@H]3O[C@H](CO)[C@@H](O)[C@H](O)[C@H]3N)O[C@@H]2CO)[C@H](N)[C@@H](O)[C@@H]1O` [Paromomycin, paromomycin], the “reduction in overall translation” value in data set [4] is reported as “approximately 40%”. On to `NCCC(O)C(=O)NC1CC(N)C(OC2OC(CN)C(O)C(O)C2N)C(O)C1O` (stereo not shown) [N-1-AHB-neamine], for which the LD50 with mice (acute lethal toxicity) is recorded as 260 mg/kg.
